Assay results as given in the kinase profiling compilation of Christmann-Franck et al. (2016).

Tests used:
Assay in all cases: radiometric filter-binding kinase assay, Kinase HotSpot
Details in all cases: compound 0.5 µM; ATP 10 µM
LCK (human) = LCK (human) (UniProt P06239)
RPS6KA5 KD2 (human) = RPS6KA5 KD2 (human) (UniProt O75582)
IGF1R (human) = IGF1R (human) (UniProt P08069)
MUSK (human) = MUSK (human) (UniProt O15146)
EPHA1 (human) = EPHA1 (human) (UniProt P21709)
TEK (human) = TEK (human) (UniProt Q02763)
MAP3K9 (human) = MAP3K9 (human) (UniProt P80192)
MAPK13 (human) = MAPK13 (human) (UniProt O15264)
Chain of MAPK13 (human) (O15264 whole entry, looked up): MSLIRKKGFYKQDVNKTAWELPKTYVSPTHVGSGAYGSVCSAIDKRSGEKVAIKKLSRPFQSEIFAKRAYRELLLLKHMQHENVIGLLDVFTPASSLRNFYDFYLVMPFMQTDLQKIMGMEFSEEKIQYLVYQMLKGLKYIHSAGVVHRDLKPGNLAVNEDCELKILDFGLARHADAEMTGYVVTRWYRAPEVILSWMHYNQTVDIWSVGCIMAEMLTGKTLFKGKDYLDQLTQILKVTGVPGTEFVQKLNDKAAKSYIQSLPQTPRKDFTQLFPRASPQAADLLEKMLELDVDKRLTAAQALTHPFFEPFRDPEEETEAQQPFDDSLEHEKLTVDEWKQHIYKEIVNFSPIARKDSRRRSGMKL

DSTYK (human) = DSTYK (human) (UniProt Q6XUX3)
MET (human) = MET (human) (UniProt P08581)
ADRBK2 (human) = ADRBK2 (human) (UniProt P35626)
MINK1 (human) = MINK1 (human) (UniProt Q8N4C8)
GRK5 (human) = GRK5 (human) (UniProt P34947)
WNK2 (human) = WNK2 (human) (UniProt Q9Y3S1)
PRKD2 (human) = PRKD2 (human) (UniProt Q9BZL6)
PRKCB2 (human) = PRKCB2 (human) (UniProt P05771)
NTRK2 (human) = NTRK2 (human) (UniProt Q16620)
SRPK2 (human) = SRPK2 (human) (UniProt P78362)
Chain of SRPK2 (human) (P78362 whole entry, looked up): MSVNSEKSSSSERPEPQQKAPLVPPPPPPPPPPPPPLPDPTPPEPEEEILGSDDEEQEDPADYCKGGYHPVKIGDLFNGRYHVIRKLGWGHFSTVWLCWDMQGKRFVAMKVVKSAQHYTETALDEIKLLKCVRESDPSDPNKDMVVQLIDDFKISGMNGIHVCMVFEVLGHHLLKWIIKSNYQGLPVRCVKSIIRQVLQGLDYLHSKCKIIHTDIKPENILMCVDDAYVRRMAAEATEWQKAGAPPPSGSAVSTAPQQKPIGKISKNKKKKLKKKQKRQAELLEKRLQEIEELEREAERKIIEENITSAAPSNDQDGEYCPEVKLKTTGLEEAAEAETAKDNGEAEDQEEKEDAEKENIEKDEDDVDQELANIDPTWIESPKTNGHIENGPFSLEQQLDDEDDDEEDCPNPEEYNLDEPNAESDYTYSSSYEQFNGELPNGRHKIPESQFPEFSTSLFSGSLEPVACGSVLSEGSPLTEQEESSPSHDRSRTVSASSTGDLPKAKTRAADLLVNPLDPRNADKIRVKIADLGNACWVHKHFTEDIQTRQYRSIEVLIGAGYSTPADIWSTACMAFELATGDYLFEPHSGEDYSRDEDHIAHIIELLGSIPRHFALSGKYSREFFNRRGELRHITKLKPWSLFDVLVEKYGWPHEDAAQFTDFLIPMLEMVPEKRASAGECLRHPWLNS

STK4 (human) = STK4 (human) (UniProt Q13043)
STK17A (human) = STK17A (human) (UniProt Q9UEE5)
CDK6 CCND1 (human) = CDK6 CCND1 (human) (UniProt Q00534+P24385)
CLK2 (human) = CLK2 (human) (UniProt P49760)
DAPK2 (human) = DAPK2 (human) (UniProt Q9UIK4)
STK38 (human) = STK38 (human) (UniProt Q15208)
MAP3K2 (human) = MAP3K2 (human) (UniProt Q9Y2U5)
ERBB2 (human) = ERBB2 (human) (UniProt P04626)
AKT3 (human) = AKT3 (human) (UniProt Q9Y243)
MAP4K4 (human) = MAP4K4 (human) (UniProt O95819)
MYLK (human) = MYLK (human) (UniProt Q15746)
Chain of MYLK (human) (Q15746 whole entry, looked up): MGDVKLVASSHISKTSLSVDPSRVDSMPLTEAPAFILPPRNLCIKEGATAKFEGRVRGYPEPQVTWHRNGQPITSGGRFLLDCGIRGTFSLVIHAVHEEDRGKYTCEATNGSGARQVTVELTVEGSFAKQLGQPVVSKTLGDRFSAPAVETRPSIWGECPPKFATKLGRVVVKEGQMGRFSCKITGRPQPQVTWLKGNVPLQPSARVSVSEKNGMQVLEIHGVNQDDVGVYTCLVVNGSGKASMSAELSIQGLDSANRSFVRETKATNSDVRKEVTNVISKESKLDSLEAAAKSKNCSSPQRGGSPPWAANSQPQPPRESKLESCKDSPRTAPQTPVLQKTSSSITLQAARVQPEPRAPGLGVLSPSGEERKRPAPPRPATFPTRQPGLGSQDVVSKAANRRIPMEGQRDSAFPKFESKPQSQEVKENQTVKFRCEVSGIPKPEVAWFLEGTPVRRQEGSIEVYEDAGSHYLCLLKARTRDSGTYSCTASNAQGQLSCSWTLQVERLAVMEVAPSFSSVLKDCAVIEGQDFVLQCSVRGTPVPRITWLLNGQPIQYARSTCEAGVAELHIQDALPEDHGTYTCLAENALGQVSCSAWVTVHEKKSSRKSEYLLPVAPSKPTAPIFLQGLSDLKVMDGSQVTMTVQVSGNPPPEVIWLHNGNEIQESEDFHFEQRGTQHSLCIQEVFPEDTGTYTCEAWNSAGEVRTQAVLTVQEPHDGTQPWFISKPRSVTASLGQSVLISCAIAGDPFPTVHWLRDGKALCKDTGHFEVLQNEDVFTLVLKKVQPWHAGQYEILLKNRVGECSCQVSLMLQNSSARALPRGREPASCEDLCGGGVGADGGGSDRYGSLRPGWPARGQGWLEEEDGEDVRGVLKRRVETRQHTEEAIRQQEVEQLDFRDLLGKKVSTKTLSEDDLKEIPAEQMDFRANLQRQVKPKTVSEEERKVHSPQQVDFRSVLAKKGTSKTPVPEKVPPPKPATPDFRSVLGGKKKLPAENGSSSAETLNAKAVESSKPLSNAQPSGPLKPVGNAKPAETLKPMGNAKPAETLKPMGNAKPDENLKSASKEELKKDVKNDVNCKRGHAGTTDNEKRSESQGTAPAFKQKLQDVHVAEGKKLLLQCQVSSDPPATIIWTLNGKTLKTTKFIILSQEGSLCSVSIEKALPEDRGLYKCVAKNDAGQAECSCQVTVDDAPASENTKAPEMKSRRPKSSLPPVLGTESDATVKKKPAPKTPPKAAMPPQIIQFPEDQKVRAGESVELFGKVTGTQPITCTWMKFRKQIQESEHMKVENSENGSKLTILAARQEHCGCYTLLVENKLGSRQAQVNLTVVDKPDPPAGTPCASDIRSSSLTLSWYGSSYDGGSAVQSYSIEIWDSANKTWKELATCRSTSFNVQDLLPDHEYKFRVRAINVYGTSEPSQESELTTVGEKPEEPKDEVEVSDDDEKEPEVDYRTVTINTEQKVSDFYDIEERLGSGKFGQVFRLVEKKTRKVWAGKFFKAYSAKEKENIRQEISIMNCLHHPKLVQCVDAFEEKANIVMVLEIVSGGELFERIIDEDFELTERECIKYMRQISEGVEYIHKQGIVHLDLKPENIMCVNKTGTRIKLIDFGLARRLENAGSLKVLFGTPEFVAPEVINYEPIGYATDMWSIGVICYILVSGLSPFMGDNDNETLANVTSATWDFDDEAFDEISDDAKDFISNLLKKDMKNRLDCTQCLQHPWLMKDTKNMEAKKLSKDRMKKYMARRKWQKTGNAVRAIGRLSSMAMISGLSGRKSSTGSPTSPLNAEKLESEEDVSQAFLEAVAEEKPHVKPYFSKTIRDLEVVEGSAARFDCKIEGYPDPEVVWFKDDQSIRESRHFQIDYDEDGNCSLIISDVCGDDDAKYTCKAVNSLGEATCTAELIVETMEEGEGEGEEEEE

NTRK3 (human) = NTRK3 (human) (UniProt Q16288)
STK11 (human) = STK11 (human) (UniProt Q15831)
MAP3K11 (human) = MAP3K11 (human) (UniProt Q16584)
SRC (human) = SRC (human) (UniProt P12931)
NLK (human) = NLK (human) (UniProt Q9UBE8)
PRKCG (human) = PRKCG (human) (UniProt P05129)
STK39 (human) = STK39 (human) (UniProt Q9UEW8)
PAK1 (human) = PAK1 (human) (UniProt Q13153)
Chain of PAK1 (human) (Q13153 whole entry, looked up): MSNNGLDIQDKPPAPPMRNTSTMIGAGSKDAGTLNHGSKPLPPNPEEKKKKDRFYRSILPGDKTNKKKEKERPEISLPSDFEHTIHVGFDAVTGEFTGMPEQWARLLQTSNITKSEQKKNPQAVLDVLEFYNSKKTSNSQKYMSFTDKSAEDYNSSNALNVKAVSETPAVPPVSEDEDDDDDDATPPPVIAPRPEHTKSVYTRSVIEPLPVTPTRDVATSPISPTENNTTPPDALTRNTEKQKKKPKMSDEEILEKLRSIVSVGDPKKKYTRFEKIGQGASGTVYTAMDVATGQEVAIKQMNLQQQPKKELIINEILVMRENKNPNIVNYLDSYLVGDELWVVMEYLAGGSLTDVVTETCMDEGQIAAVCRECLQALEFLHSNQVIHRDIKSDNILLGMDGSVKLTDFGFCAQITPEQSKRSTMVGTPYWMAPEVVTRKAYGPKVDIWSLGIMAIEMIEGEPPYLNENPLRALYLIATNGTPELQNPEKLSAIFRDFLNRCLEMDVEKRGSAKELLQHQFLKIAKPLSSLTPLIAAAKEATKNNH

INSR (human) = INSR (human) (UniProt P06213)
MARK1 (human) = MARK1 (human) (UniProt Q9P0L2)
MAP3K7 TAB1 (human) = MAP3K7 TAB1 (human) (UniProt O43318+Q15750)
DCLK2 (human) = DCLK2 (human) (UniProt Q8N568)
CAMK2B (human) = CAMK2B (human) (UniProt Q13554)

Chain of RPS6KA5 KD2 (human) (O75582 whole entry, looked up): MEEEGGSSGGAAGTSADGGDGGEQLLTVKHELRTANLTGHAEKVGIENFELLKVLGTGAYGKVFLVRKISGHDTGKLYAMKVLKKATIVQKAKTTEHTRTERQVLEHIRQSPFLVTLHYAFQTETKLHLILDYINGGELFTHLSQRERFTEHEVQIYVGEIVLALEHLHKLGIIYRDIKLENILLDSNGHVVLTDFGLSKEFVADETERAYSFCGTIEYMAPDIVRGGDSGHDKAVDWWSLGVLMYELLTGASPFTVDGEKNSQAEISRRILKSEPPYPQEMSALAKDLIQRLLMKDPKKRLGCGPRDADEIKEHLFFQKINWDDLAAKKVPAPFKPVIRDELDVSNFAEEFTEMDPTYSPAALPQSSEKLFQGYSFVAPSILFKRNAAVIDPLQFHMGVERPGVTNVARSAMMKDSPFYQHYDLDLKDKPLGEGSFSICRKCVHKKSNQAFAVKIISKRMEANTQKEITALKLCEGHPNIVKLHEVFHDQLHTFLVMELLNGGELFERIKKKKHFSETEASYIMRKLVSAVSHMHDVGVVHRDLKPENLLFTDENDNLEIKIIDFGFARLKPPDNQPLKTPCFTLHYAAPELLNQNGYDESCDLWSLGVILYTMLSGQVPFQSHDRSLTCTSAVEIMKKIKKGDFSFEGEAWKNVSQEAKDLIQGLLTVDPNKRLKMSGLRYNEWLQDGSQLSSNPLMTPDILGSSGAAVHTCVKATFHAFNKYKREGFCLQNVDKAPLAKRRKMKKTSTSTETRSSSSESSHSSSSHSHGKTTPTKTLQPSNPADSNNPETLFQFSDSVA

O=C1NC(=O)C(c2cn(CCCn3ccnc3)c3ccccc23)=C1Nc1ccccc1
residual activity (LCK (human)): 99.4%
residual activity (RPS6KA5 KD2 (human)): 36.9%
residual activity (IGF1R (human)): 95.3%
residual activity (MUSK (human)): 51.6%
residual activity (EPHA1 (human)): 101%
residual activity (TEK (human)): 92.3%
residual activity (MAP3K9 (human)): 30.6%
residual activity (MAPK13 (human)): 122%
residual activity (DSTYK (human)): 102%
residual activity (MET (human)): 100%
residual activity (ADRBK2 (human)): 97.9%
residual activity (MINK1 (human)): 90.1%
residual activity (GRK5 (human)): 90.9%
residual activity (WNK2 (human)): 99.8%
residual activity (PRKD2 (human)): 94.3%
residual activity (PRKCB2 (human)): 4.29%
residual activity (NTRK2 (human)): 85.8%
residual activity (SRPK2 (human)): 96.2%
residual activity (STK4 (human)): 40.9%
residual activity (STK17A (human)): 93.1%
residual activity (CDK6 CCND1 (human)): 83.1%
residual activity (CLK2 (human)): 14.7%
residual activity (DAPK2 (human)): 104%
residual activity (STK38 (human)): 99.1%
residual activity (MAP3K2 (human)): 83.3%
residual activity (ERBB2 (human)): 93.6%
residual activity (AKT3 (human)): 71%
residual activity (MAP4K4 (human)): 64%
residual activity (MYLK (human)): 81.6%
residual activity (NTRK3 (human)): 40%
residual activity (STK11 (human)): 89.9%
residual activity (MAP3K11 (human)): 13.3%
residual activity (SRC (human)): 100%
residual activity (NLK (human)): 97%
residual activity (PRKCG (human)): 51.6%
residual activity (STK39 (human)): 99.2%
residual activity (PAK1 (human)): 92.9%
residual activity (INSR (human)): 84.4%
residual activity (MARK1 (human)): 93.6%
residual activity (MAP3K7 TAB1 (human)): 93.8%
residual activity (DCLK2 (human)): 96.3%
residual activity (CAMK2B (human)): 93.8%

c1ccc(-c2n[nH]cc2-c2ccnc3ccccc23)nc1
residual activity (LCK (human)): 91.7%
residual activity (RPS6KA5 KD2 (human)): 102%
residual activity (IGF1R (human)): 102%
residual activity (MUSK (human)): 93.4%
residual activity (EPHA1 (human)): 97.7%
residual activity (TEK (human)): 98.8%
residual activity (MAP3K9 (human)): 90.4%
residual activity (MAPK13 (human)): 110%
residual activity (DSTYK (human)): 98.3%
residual activity (MET (human)): 94.1%
residual activity (ADRBK2 (human)): 103%
residual activity (MINK1 (human)): 84.1%
residual activity (GRK5 (human)): 109%
residual activity (WNK2 (human)): 49.2%
residual activity (PRKD2 (human)): 66.9%
residual activity (PRKCB2 (human)): 92.1%
residual activity (NTRK2 (human)): 112%
residual activity (SRPK2 (human)): 97.2%
residual activity (STK4 (human)): 101%
residual activity (STK17A (human)): 117%
residual activity (CDK6 CCND1 (human)): 91.1%
residual activity (CLK2 (human)): 99.4%
residual activity (DAPK2 (human)): 102%
residual activity (STK38 (human)): 111%
residual activity (MAP3K2 (human)): 91.2%
residual activity (ERBB2 (human)): 106%
residual activity (AKT3 (human)): 92.6%
residual activity (MAP4K4 (human)): 48.3%
residual activity (MYLK (human)): 105%
residual activity (NTRK3 (human)): 92.7%
residual activity (STK11 (human)): 82.6%
residual activity (MAP3K11 (human)): 96.5%
residual activity (SRC (human)): 94.7%
residual activity (NLK (human)): 79.8%
residual activity (PRKCG (human)): 117%
residual activity (STK39 (human)): 88.7%
residual activity (PAK1 (human)): 96.3%
residual activity (INSR (human)): 86.7%
residual activity (MARK1 (human)): 79.2%
residual activity (MAP3K7 TAB1 (human)): 98.4%
residual activity (DCLK2 (human)): 97.4%
residual activity (CAMK2B (human)): 97.2%

O=C1Nc2ccc(Cl)cc2/C1=C/c1cc(Cl)c(O)c(Cl)c1
residual activity (LCK (human)): 88.2%
residual activity (RPS6KA5 KD2 (human)): 86.1%
residual activity (IGF1R (human)): 98.3%
residual activity (MUSK (human)): 65.5%
residual activity (EPHA1 (human)): 88.9%
residual activity (TEK (human)): 93%
residual activity (MAP3K9 (human)): 102%
residual activity (MAPK13 (human)): 97.8%
residual activity (DSTYK (human)): 89.6%
residual activity (MET (human)): 96.4%
residual activity (ADRBK2 (human)): 102%
residual activity (MINK1 (human)): 22.4%
residual activity (GRK5 (human)): 95.8%
residual activity (WNK2 (human)): 115%
residual activity (PRKD2 (human)): 95.5%
residual activity (PRKCB2 (human)): 97.5%
residual activity (NTRK2 (human)): 61.1%
residual activity (SRPK2 (human)): 95.2%
residual activity (STK4 (human)): 32.5%
residual activity (STK17A (human)): 78.9%
residual activity (CDK6 CCND1 (human)): 97%
residual activity (CLK2 (human)): 95.5%
residual activity (DAPK2 (human)): 135%
residual activity (STK38 (human)): 85.4%
residual activity (MAP3K2 (human)): 95.7%
residual activity (ERBB2 (human)): 107%
residual activity (AKT3 (human)): 96.9%
residual activity (MAP4K4 (human)): 4.48%
residual activity (MYLK (human)): 62.3%
residual activity (NTRK3 (human)): 44.8%
residual activity (STK11 (human)): 93.1%
residual activity (MAP3K11 (human)): 60.4%
residual activity (SRC (human)): 96.2%
residual activity (NLK (human)): 38.9%
residual activity (STK39 (human)): 97%
residual activity (PAK1 (human)): 97.2%
residual activity (INSR (human)): 99.2%
residual activity (MARK1 (human)): 89.5%
residual activity (MAP3K7 TAB1 (human)): 86.8%
residual activity (DCLK2 (human)): 98%
residual activity (CAMK2B (human)): 92%

CC(C)N(CCC(=O)c1ccc2ccccc2c1)Cc1ccccc1
residual activity (LCK (human)): 98.9%
residual activity (RPS6KA5 KD2 (human)): 102%
residual activity (IGF1R (human)): 107%
residual activity (MUSK (human)): 112%
residual activity (EPHA1 (human)): 92.4%
residual activity (TEK (human)): 96.3%
residual activity (MAP3K9 (human)): 104%
residual activity (MAPK13 (human)): 96.2%
residual activity (DSTYK (human)): 84.9%
residual activity (MET (human)): 110%
residual activity (ADRBK2 (human)): 88.9%
residual activity (MINK1 (human)): 101%
residual activity (GRK5 (human)): 93.7%
residual activity (WNK2 (human)): 107%
residual activity (PRKD2 (human)): 98.5%
residual activity (PRKCB2 (human)): 101%
residual activity (NTRK2 (human)): 92.1%
residual activity (SRPK2 (human)): 99.1%
residual activity (STK4 (human)): 92.5%
residual activity (STK17A (human)): 104%
residual activity (CDK6 CCND1 (human)): 96.8%
residual activity (CLK2 (human)): 96.3%
residual activity (DAPK2 (human)): 99.6%
residual activity (STK38 (human)): 100%
residual activity (MAP3K2 (human)): 107%
residual activity (ERBB2 (human)): 98.7%
residual activity (AKT3 (human)): 95.8%
residual activity (MAP4K4 (human)): 96.7%
residual activity (MYLK (human)): 95.6%
residual activity (NTRK3 (human)): 103%
residual activity (STK11 (human)): 94.2%
residual activity (MAP3K11 (human)): 97%
residual activity (SRC (human)): 93.2%
residual activity (NLK (human)): 94.8%
residual activity (PRKCG (human)): 92.7%
residual activity (STK39 (human)): 88.3%
residual activity (PAK1 (human)): 98.3%
residual activity (INSR (human)): 107%
residual activity (MARK1 (human)): 97.7%
residual activity (MAP3K7 TAB1 (human)): 95.4%
residual activity (DCLK2 (human)): 98.3%
residual activity (CAMK2B (human)): 96.6%
